From ChEMBL document CHEMBL5113492, “Design, synthesis, and biological evalution of bifunctional inhibitors against Hsp90-HDAC6 interplay” (Eur J Med Chem, 2022)
pIC50: −log10 of the molar value. The source made the active and inactive calls. No cut-off for these calls is given here.

What was measured:
NCI-H1975 [1] = test: Antiproliferative activity against human NCI-H1975 cells assessed as growth inhibition incubated upto 72 hrs by CellTiter96 Aqueous One Solution Cell Proliferation assay; type: functional
Histone deacetylase 3 = Histone deacetylase 3 (Homo sapiens, UniProt O15379); test: Inhibition of HDAC3 (unknown origin) using fluorogenic substrate incubated for 30 mins by fluorescence plate reader
Chain of Histone deacetylase 3 (O15379 whole entry): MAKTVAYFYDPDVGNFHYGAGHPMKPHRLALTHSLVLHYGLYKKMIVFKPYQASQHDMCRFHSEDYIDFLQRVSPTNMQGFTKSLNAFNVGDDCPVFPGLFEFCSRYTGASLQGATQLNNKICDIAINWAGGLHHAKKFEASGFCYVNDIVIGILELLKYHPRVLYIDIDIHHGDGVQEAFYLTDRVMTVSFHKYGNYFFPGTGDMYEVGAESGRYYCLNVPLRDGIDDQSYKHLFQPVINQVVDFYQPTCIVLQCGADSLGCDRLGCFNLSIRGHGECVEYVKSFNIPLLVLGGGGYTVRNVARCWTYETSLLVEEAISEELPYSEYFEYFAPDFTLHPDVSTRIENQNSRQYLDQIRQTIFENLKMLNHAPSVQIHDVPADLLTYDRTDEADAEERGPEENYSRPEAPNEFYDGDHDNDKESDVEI

[2] = biological target: T1, Heat shock protein HSP90 (Homo sapiens) (UniProt P07900+P08238); test: Inhibition of HSP90 in human NCI-H1975 cells assessed as downregulation of Met expression at 0.05 to 2 uM incubated for 24 hrs by western blot analysis; type: cell-based; details: dose 0.05-2 µM, DDE = dose-dependent effect
[3] = biological target: T1, Heat shock protein HSP90 (Homo sapiens); test: Inhibition of HSP90 in human NCI-H1975 cells assessed as downregulation of Akt expression at 0.05 to 2 uM incubated for 24 hrs by western blot analysis; type: cell-based; details: dose 0.05-2 µM, DDE = dose-dependent effect
[4] = biological target: T1, Heat shock protein HSP90 (Homo sapiens); test: Inhibition of HSP90 in human NCI-H1975 cells assessed as upregulation of HSP70 expression at 0.05 to 2 uM incubated for 24 hrs by western blot analysis; type: cell-based; details: dose 0.05-2 µM, DDE = dose-dependent effect
[5] = biological target: T2, Protein deacetylase HDAC6 (Homo sapiens) (UniProt Q9UBN7); test: Inhibition of HDAC6 in human NCI-H1975 cells assessed as increase in acetylation of alpha tubulin at 1 uM incubated for 24 hrs by western blot analysis; type: cell-based
T2 sequence (whole entry): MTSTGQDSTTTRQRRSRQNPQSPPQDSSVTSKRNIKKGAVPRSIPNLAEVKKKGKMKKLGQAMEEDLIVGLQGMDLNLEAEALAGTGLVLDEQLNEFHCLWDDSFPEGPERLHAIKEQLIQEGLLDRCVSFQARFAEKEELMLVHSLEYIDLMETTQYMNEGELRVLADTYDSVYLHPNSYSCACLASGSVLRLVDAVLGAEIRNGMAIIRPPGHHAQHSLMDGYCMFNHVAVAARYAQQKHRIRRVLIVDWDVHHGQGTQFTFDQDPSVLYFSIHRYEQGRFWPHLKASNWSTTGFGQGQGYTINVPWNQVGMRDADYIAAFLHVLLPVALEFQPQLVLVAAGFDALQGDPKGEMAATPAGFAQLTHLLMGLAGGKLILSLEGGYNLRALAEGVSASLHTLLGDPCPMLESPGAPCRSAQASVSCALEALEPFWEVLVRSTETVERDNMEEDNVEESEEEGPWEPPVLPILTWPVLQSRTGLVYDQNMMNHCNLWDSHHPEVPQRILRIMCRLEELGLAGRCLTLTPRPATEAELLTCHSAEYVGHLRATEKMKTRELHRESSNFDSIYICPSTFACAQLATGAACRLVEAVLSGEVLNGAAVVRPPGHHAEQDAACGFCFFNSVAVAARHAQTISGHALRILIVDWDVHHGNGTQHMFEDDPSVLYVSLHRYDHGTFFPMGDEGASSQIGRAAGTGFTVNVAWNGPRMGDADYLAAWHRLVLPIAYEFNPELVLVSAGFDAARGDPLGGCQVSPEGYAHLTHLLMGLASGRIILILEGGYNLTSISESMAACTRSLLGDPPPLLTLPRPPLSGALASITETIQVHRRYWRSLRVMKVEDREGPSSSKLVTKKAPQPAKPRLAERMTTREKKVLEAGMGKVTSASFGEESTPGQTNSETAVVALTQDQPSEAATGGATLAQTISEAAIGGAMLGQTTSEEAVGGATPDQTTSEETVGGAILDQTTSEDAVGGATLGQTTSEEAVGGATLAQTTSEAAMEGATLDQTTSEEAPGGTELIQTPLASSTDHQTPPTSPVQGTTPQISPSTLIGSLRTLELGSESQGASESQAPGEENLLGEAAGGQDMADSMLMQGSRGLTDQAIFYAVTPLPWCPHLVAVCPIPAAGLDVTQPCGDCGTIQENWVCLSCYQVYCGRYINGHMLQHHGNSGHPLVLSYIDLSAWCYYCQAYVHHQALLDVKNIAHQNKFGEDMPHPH

[6] = biological target: T2, Protein deacetylase HDAC6 (Homo sapiens); test: Inhibition of HDAC6 in human NCI-H1975 cells assessed as increase in acetylation of HSP90 at 2 uM incubated for 24 hrs by western blot analysis; type: cell-based
NCI-H1975 [7] = test: Induction of apoptosis in human NCI-H1975 cells assessed as early apoptotic cells at 2 uM incubated for 24 hrs by Annexin-V/propidium iodide staining based flow cytometry analysis; type: functional
NCI-H1975 [8] = test: Induction of apoptosis in human NCI-H1975 cells assessed as late apoptotic cells at 2 uM incubated for 24 hrs by Annexin-V/propidium iodide staining based flow cytometry analysis; type: functional
NCI-H1975 [9] = test: Induction of apoptosis in human NCI-H1975 cells assessed as PARP cleavage at 0.05 to 2 uM incubated for 24 hrs by western blot analysis; type: functional, cell-based; details: dose 0.05-2 µM, DDE = dose-dependent effect
[10] = biological target: T2, Protein deacetylase HDAC6 (Homo sapiens); test: Inhibition of HDAC6 in human NCI-H1975 cells assessed as microtubule polymerization at 1 uM incubated for 24 hrs by DAPI staining based immunofluorescence microscopy; type: cell-based
NCI-H1975 [11] = test: Antitumor activity against NSG mouse xenografted with human NCI-H1975 cells assessed as reduction on tumor growth at 25 mg/kg,ip measured after 6 weeks; type: functional, organism-based
NCI-H1975 [12] = test: Antitumor activity against NSG mouse xenografted with human NCI-H1975 cells assessed as reduction on tumor growth at 50 mg/kg,ip measured after 6 weeks; type: functional, organism-based
Mus musculus [13] = test: In vivo inhibition of HDAC1 in human NCI-H1975 cells xenografted with NSG mouse assessed as increase in acetylation of Histone H3 at 25 mg/kg,ip measured after 6 weeks by immunohistochemistry analysis; type: functional, organism-based
Mus musculus [14] = test: In vivo inhibition of HDAC1 in human NCI-H1975 cells xenografted with NSG mouse assessed as increase in acetylation of Histone H3 at 50 mg/kg,ip measured after 6 weeks by immunohistochemistry analysis; type: functional, organism-based
[15] = Toxicity in NSG mouse xenografted with human NCI-H1975 cells assessed as histological abnormalities in ocular region at 25 mg/kg,ip measured after 6 weeks by H and E staining based assay; type: organism-based; details: in vivo, 1008 h
[16] = Toxicity in NSG mouse xenografted with human NCI-H1975 cells assessed as histological abnormalities in ocular region at 50 mg/kg,ip measured after 6 weeks by H and E staining based assay; type: organism-based; details: in vivo, 1008 h
[17] = Toxicity in NSG mouse xenografted with human NCI-H1975 cells assessed as change in number of retina at 25 mg/kg,ip measured after 6 weeks by H and E staining based assay; type: organism-based; details: in vivo, 1008 h
[18] = Toxicity in NSG mouse xenografted with human NCI-H1975 cells assessed as change in body weight at 25 mg/kg,ip measured after 6 weeks; type: organism-based; details: in vivo, 1008 h
[19] = Toxicity in NSG mouse xenografted with human NCI-H1975 cells assessed as change in body weight at 50 mg/kg,ip measured after 6 weeks; type: organism-based; details: in vivo, 1008 h
[20] = Toxicity in NSG mouse xenografted with human NCI-H1975 cells assessed as abnormal behavior at 25 mg/kg,ip measured after 6 weeks; type: organism-based; details: in vivo, 1008 h

- GI50 (NCI-H1975 [1]): 1700 nM
- pIC50 (Histone deacetylase 3): 5.81
- inhibition [2]: Dde
- inhibition [3]: Dde
- inhibition [4]: Dde
- inhibition [5]: Active
- inhibition [6]: Active
- inhibition [10]: Active
Compound: CC(C)c1cc(C(=O)N(C)Cc2ccc(C(=O)NO)cc2)c(O)cc1O
- Activity (NCI-H1975 [7]): 16.78%
- Activity (NCI-H1975 [8]): 9.01%
- Activity (NCI-H1975 [9]): Dde
- Activity (NCI-H1975 [11]): Active
- Activity (NCI-H1975 [12]): Active
- inhibition (Mus musculus [13]): Active
- inhibition (Mus musculus [14]): Active
- Activity [15]: Non-Toxic
- Activity [16]: Non-Toxic
- Activity [17]: Non-Toxic
- Activity [18]: Non-Toxic
- Activity [19]: Non-Toxic
- Activity [20]: Non-Toxic
